Measured values taken from ChEMBL document CHEMBL3885861, “Open TG-GATES”.

Species: Rattus norvegicus
Test: Open TG-GATES - Regimen: Daily Repeat
Assay type: toxicity, organism-based, Sprague-Dawley
Parameters: regimen Daily Repeat, gender Male, age 6 weeks
Conditions: in vivo, po, 120 mg/kg, route gavage, dose level Middle; for APTT / Bas / Eos / Fbg / Hb / Ht / Lym / MCH / MCHC / MCV / Mono / Neu / PT / Plat / RBC / Ret / WBC: tissue Blood; for KIDNEY_L / KIDNEY_R / KIDNEY_TOTAL: tissue Kidney; for LIVER: tissue Liver; for A/G / ALP / ALT / AST / BUN / CRE / Ca / Cl / DBIL / GLC / IP / K / LDH / Na / PL / RALB / TBIL / TC / TG / TP / gamma-GTP: tissue Plasma

COc1ccc(Cc2nccc3cc(OC)c(OC)cc23)cc1OC [PAPAVERINE]
TERMINAL_BW (72 h, time 3 day): 245.2 g
APTT (72 h, time 3 day): 22.2 s
Bas (72 h, time 3 day): 0%
Eos (72 h, time 3 day): 1%
Fbg (72 h, time 3 day): 316.2 mg/dL
Hb (72 h, time 3 day): 13.6 g/dL
Ht (72 h, time 3 day): 40.6%
Lym (72 h, time 3 day): 77.8%
MCH (72 h, time 3 day): 20.8 pg
MCHC (72 h, time 3 day): 33.5%
MCV (72 h, time 3 day): 62.1 fL
Mono (72 h, time 3 day): 2.6%
Neu (72 h, time 3 day): 17.8%
PT (72 h, time 3 day): 15.3 s
Plat (72 h, time 3 day): 116.6 x10_4/uL
RBC (72 h, time 3 day): 654.2 x10_4/ul
Ret (72 h, time 3 day): 6.2%
WBC (72 h, time 3 day): 84.6 x10_2/uL
KIDNEY_L (72 h, time 3 day): 1 g
KIDNEY_R (72 h, time 3 day): 1 g
KIDNEY_TOTAL (72 h, time 3 day): 2 g
LIVER (72 h, time 3 day): 11.7 g
A/G (72 h, time 3 day): 1.2
ALP (72 h, time 3 day): 1731.2 IU/L
ALT (72 h, time 3 day): 43 IU/L
AST (72 h, time 3 day): 72 IU/L
BUN (72 h, time 3 day): 15.8 mg/dL
CRE (72 h, time 3 day): 0.2 mg/dL
Ca (72 h, time 3 day): 10.9 mg/dL
Cl (72 h, time 3 day): 106.8 meq/L
DBIL (72 h, time 3 day): 0 mg/dL
GLC (72 h, time 3 day): 195.8 mg/dL
IP (72 h, time 3 day): 7.3 mg/dL
K (72 h, time 3 day): 4.3 meq/L
LDH (72 h, time 3 day): 179.2 IU/L
Na (72 h, time 3 day): 142.6 meq/L
PL (72 h, time 3 day): 144 mg/dL
RALB (72 h, time 3 day): 3.1 g/dL
TBIL (72 h, time 3 day): 0.006 mg/dL
TC (72 h, time 3 day): 77.2 mg/dL
TG (72 h, time 3 day): 98.6 mg/dL
TP (72 h, time 3 day): 5.7 g/dL
gamma-GTP (72 h, time 3 day): 1.2 IU/L
TERMINAL_BW ([…], time 7 day): 287 g
TERMINAL_BW ([…], time 14 day): 331.7 g
TERMINAL_BW ([…], time 28 day): 380.1 g
APTT ([…], time 7 day): 21.9 s
Bas ([…], time 7 day): 0%
Eos ([…], time 7 day): 1%
Fbg ([…], time 7 day): 314.8 mg/dL
Hb ([…], time 7 day): 13.4 g/dL
Ht ([…], time 7 day): 39.9%
Lym ([…], time 7 day): 76.8%
MCH ([…], time 7 day): 21 pg
MCHC ([…], time 7 day): 33.6%
MCV ([…], time 7 day): 62.6 fL
Mono ([…], time 7 day): 2.8%
Neu ([…], time 7 day): 18.6%
PT ([…], time 7 day): 15 s
Plat ([…], time 7 day): 122.9 x10_4/uL
RBC ([…], time 7 day): 638.8 x10_4/ul
Ret ([…], time 7 day): 6.6%
WBC ([…], time 7 day): 106.6 x10_2/uL
APTT ([…], time 14 day): 22.2 s
Bas ([…], time 14 day): 0%
Eos ([…], time 14 day): 1%
Fbg ([…], time 14 day): 341.6 mg/dL
Hb ([…], time 14 day): 14.1 g/dL
Ht ([…], time 14 day): 42.1%
Lym ([…], time 14 day): 71.2%
MCH ([…], time 14 day): 20 pg
MCHC ([…], time 14 day): 33.6%
MCV ([…], time 14 day): 59.7 fL
Mono ([…], time 14 day): 3.4%
Neu ([…], time 14 day): 22.8%
PT ([…], time 14 day): 15.1 s
Plat ([…], time 14 day): 117.8 x10_4/uL
RBC ([…], time 14 day): 706.4 x10_4/ul
Ret ([…], time 14 day): 5.2%
WBC ([…], time 14 day): 121.3 x10_2/uL
APTT ([…], time 28 day): 23.2 s
Bas ([…], time 28 day): 0%
Eos ([…], time 28 day): 1%
Fbg ([…], time 28 day): 339.2 mg/dL
Hb ([…], time 28 day): 14.3 g/dL
Ht ([…], time 28 day): 43.4%
Lym ([…], time 28 day): 77.6%
MCH ([…], time 28 day): 18.5 pg
MCHC ([…], time 28 day): 33%
MCV ([…], time 28 day): 56.1 fL
Mono ([…], time 28 day): 2.8%
Neu ([…], time 28 day): 17%
PT ([…], time 28 day): 15.8 s
Plat ([…], time 28 day): 100.4 x10_4/uL
RBC ([…], time 28 day): 773 x10_4/ul
Ret ([…], time 28 day): 2.7%
WBC ([…], time 28 day): 122.5 x10_2/uL
KIDNEY_L ([…], time 7 day): 1.2 g
KIDNEY_R ([…], time 7 day): 1.2 g
KIDNEY_TOTAL ([…], time 7 day): 2.4 g
KIDNEY_L ([…], time 14 day): 1.3 g
KIDNEY_R ([…], time 14 day): 1.3 g
KIDNEY_TOTAL ([…], time 14 day): 2.6 g
KIDNEY_L ([…], time 28 day): 1.4 g
KIDNEY_R ([…], time 28 day): 1.4 g
KIDNEY_TOTAL ([…], time 28 day): 2.8 g
LIVER ([…], time 7 day): 13.8 g
LIVER ([…], time 14 day): 14.4 g
LIVER ([…], time 28 day): 15.7 g
A/G ([…], time 7 day): 1.2
ALP ([…], time 7 day): 1633.8 IU/L
ALT ([…], time 7 day): 45.4 IU/L
AST ([…], time 7 day): 68.8 IU/L
BUN ([…], time 7 day): 17.2 mg/dL
CRE ([…], time 7 day): 0.2 mg/dL
Ca ([…], time 7 day): 10.8 mg/dL
Cl ([…], time 7 day): 106 meq/L
DBIL ([…], time 7 day): 0 mg/dL
GLC ([…], time 7 day): 197.4 mg/dL
IP ([…], time 7 day): 7.2 mg/dL
K ([…], time 7 day): 4 meq/L
LDH ([…], time 7 day): 173.4 IU/L
Na ([…], time 7 day): 141.4 meq/L
PL ([…], time 7 day): 149 mg/dL
RALB ([…], time 7 day): 3.1 g/dL
TBIL ([…], time 7 day): 0 mg/dL
TC ([…], time 7 day): 73.4 mg/dL
TG ([…], time 7 day): 123.2 mg/dL
TP ([…], time 7 day): 5.6 g/dL
gamma-GTP ([…], time 7 day): 2.2 IU/L
A/G ([…], time 14 day): 1.1
ALP ([…], time 14 day): 1378.8 IU/L
ALT ([…], time 14 day): 48 IU/L
AST ([…], time 14 day): 75.4 IU/L
BUN ([…], time 14 day): 18.6 mg/dL
CRE ([…], time 14 day): 0.2 mg/dL
Ca ([…], time 14 day): 10.5 mg/dL
Cl ([…], time 14 day): 106.6 meq/L
DBIL ([…], time 14 day): 0 mg/dL
GLC ([…], time 14 day): 191 mg/dL
IP ([…], time 14 day): 7.2 mg/dL
K ([…], time 14 day): 4 meq/L
LDH ([…], time 14 day): 166 IU/L
Na ([…], time 14 day): 142.6 meq/L
PL ([…], time 14 day): 156 mg/dL
RALB ([…], time 14 day): 3.1 g/dL
TBIL ([…], time 14 day): 0.014 mg/dL
TC ([…], time 14 day): 81.8 mg/dL
TG ([…], time 14 day): 109.8 mg/dL
TP ([…], time 14 day): 5.8 g/dL
gamma-GTP ([…], time 14 day): 2.4 IU/L
A/G ([…], time 28 day): 1.1
ALP ([…], time 28 day): 1042.8 IU/L
ALT ([…], time 28 day): 40.4 IU/L
AST ([…], time 28 day): 66.4 IU/L
BUN ([…], time 28 day): 18.2 mg/dL
CRE ([…], time 28 day): 0.2 mg/dL
Ca ([…], time 28 day): 10.1 mg/dL
Cl ([…], time 28 day): 106.2 meq/L
DBIL ([…], time 28 day): 0 mg/dL
GLC ([…], time 28 day): 191.4 mg/dL
IP ([…], time 28 day): 6 mg/dL
K ([…], time 28 day): 3.9 meq/L
LDH ([…], time 28 day): 120 IU/L
Na ([…], time 28 day): 141.8 meq/L
PL ([…], time 28 day): 129.8 mg/dL
RALB ([…], time 28 day): 3.1 g/dL
TBIL ([…], time 28 day): 0.01 mg/dL
TC ([…], time 28 day): 65.2 mg/dL
TG ([…], time 28 day): 119.8 mg/dL
TP ([…], time 28 day): 5.9 g/dL
gamma-GTP ([…], time 28 day): 2 IU/L
